Columns and labels:
Assay type in all cases: in vivo
catchweed = assay: Test Example 4: weedkilling efficacy by foliar treatment; O: catchweed; details: treatment dosage 315 g/ha
Procedure, shortened: (§1)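 Seeds are spot-sown into sterilized diluvial soil and covered with about 1.5 cm of soil. After 14 days' greenhouse growth at 25 to 30° C, plants are sprayed on stems and leaves with diluted emulsion at the stated g/ha rate, then scored at 3 weeks.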

wheat [1] = assay: Test Example 4: foliar treatment, effect on crop; e: wheat; details: treatment dosage 315 g/ha
Procedure, shortened: as §1

crabgrass [2] = assay: Test Example 4: weedkilling efficacy by foliar treatment; D: crabgrass; details: treatment dosage 315 g/ha
Procedure, shortened: as §1

crabgrass [3] = assay: Test Example 3: weedkilling efficacy through soil treatment; D: crabgrass; details: treatment dosage 315 g/ha
Procedure, shortened: (§2)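 Crop and weed responses were judged three weeks after a uniform surface spray of the water-diluted emulsion at the given g/ha rate. Seeds sat beneath about 1.5 cm of sterilized diluvial soil, and boxes stood in a greenhouse at 25 to 30° C.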

corn [4] = assay: Test Example 3: soil treatment, effect on crop; c: corn; details: treatment dosage 315 g/ha
Procedure, shortened: as §2

corn [5] = assay: Test Example 4: foliar treatment, effect on crop; c: corn; details: treatment dosage 315 g/ha
Procedure, shortened: as §1

chickweed [6] = assay: Test Example 4: weedkilling efficacy by foliar treatment; N: chickweed; details: treatment dosage 315 g/ha
Procedure, shortened: as §1

wild oat [7] = assay: Test Example 3: weedkilling efficacy through soil treatment; G: wild oat; details: treatment dosage 315 g/ha
Procedure, shortened: as §2

directly sown rice [8] = assay: Test Example 4: foliar treatment, effect on crop; b: directly sown rice; details: treatment dosage 315 g/ha
Procedure, shortened: as §1

wheat [9] = assay: Test Example 3: soil treatment, effect on crop; e: wheat; details: treatment dosage 315 g/ha
Procedure, shortened: as §2

barnyard grass [10] = assay: Test Example 1: weedkilling efficacy, preemergent weed treatment in the submerged state; A: barnyard grass; details: treatment dosage 252 g/ha
Procedure, shortened: (§3)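 Visual scores against set criteria were taken 3 weeks after treatment. Compounds, as diluted emulsions at specified g/ha, went onto the water surface of 4 cm-flooded alluvial soil pots on the day weeds were sown and 2.5-leaf rice was transplanted; greenhouse held 25–30 °C.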

fig-leafed goosefoot [11] = assay: Test Example 3: weedkilling efficacy through soil treatment; M: fig-leafed goosefoot; details: treatment dosage 315 g/ha
Procedure, shortened: as §2

Italian ryegrass [12] = assay: Test Example 3: weedkilling efficacy through soil treatment; I: Italian ryegrass; details: treatment dosage 315 g/ha
Procedure, shortened: as §2

green foxtail [13] = assay: Test Example 3: weedkilling efficacy through soil treatment; E: green foxtail; details: treatment dosage 315 g/ha
Procedure, shortened: as §2

soybean [14] = assay: Test Example 4: foliar treatment, effect on crop; d: soybean; details: treatment dosage 315 g/ha
Procedure, shortened: as §1

fig-leafed goosefoot [15] = assay: Test Example 4: weedkilling efficacy by foliar treatment; M: fig-leafed goosefoot; details: treatment dosage 315 g/ha
Procedure, shortened: as §1

oval-leafed pondweed [16] = assay: Test Example 2: weedkilling efficacy, growth period weed treatment in the submerged state; C: oval-leafed pondweed; details: treatment dosage 252 g/ha
Procedure, shortened: (§4)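 Barnyard grass, bulrush and oval-leafed pondweed sown in alluvial soil under 4 cm flooding, greenhouse 25 to 30° C. At 1-2 leaf stage, water-diluted emulsion applied to the water surface at stated g/ha dosages; effects scored 3 weeks later.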

beet [17] = assay: Test Example 4: foliar treatment, effect on crop; f: beet; details: treatment dosage 315 g/ha
Procedure, shortened: as §1

directly sown rice [18] = assay: Test Example 3: soil treatment, effect on crop; b: directly sown rice; details: treatment dosage 315 g/ha
Procedure, shortened: as §2

birds-eye speedwell [19] = assay: Test Example 3: weedkilling efficacy through soil treatment; p: birds-eye speedwell; details: treatment dosage 315 g/ha
Procedure, shortened: as §2

beet [20] = assay: Test Example 3: soil treatment, effect on crop; f: beet; details: treatment dosage 315 g/ha
Procedure, shortened: as §2

soybean [21] = assay: Test Example 3: soil treatment, effect on crop; d: soybean; details: treatment dosage 315 g/ha
Procedure, shortened: as §2

bulrush [22] = assay: Test Example 1: weedkilling efficacy, preemergent weed treatment in the submerged state; B: bulrush; details: treatment dosage 252 g/ha
Procedure, shortened: as §3

bulrush [23] = assay: Test Example 2: weedkilling efficacy, growth period weed treatment in the submerged state; B: bulrush; details: treatment dosage 252 g/ha
Procedure, shortened: as §4

Indian mallow [24] = assay: Test Example 4: weedkilling efficacy by foliar treatment; K: Indian mallow; details: treatment dosage 315 g/ha
Procedure, shortened: as §1

chickweed [25] = assay: Test Example 3: weedkilling efficacy through soil treatment; N: chickweed; details: treatment dosage 315 g/ha
Procedure, shortened: as §2

green foxtail [26] = assay: Test Example 4: weedkilling efficacy by foliar treatment; E: green foxtail; details: treatment dosage 315 g/ha
Procedure, shortened: as §1

black-grass [27] = assay: Test Example 3: weedkilling efficacy through soil treatment; H: black-grass; details: treatment dosage 315 g/ha
Procedure, shortened: as §2

oval-leafed pondweed [28] = assay: Test Example 1: weedkilling efficacy, preemergent weed treatment in the submerged state; C: oval-leafed pondweed; details: treatment dosage 252 g/ha
Procedure, shortened: as §3

Indian mallow [29] = assay: Test Example 3: weedkilling efficacy through soil treatment; K: Indian mallow; details: treatment dosage 315 g/ha
Procedure, shortened: as §2

Italian ryegrass [30] = assay: Test Example 4: weedkilling efficacy by foliar treatment; I: Italian ryegrass; details: treatment dosage 315 g/ha
Procedure, shortened: as §1

transplanted rice = assay: Test Example 1: preemergent weed treatment in the submerged state, effect on crop; a: transplanted rice; details: treatment dosage 252 g/ha
Procedure, shortened: as §3

redroot pigweed [31] = assay: Test Example 3: weedkilling efficacy through soil treatment; L: redroot pigweed; details: treatment dosage 315 g/ha
Procedure, shortened: as §2

black-grass [32] = assay: Test Example 4: weedkilling efficacy by foliar treatment; H: black-grass; details: treatment dosage 315 g/ha
Procedure, shortened: as §1

redroot pigweed [33] = assay: Test Example 4: weedkilling efficacy by foliar treatment; L: redroot pigweed; details: treatment dosage 315 g/ha
Procedure, shortened: as §1

wild oat [34] = assay: Test Example 4: weedkilling efficacy by foliar treatment; G: wild oat; details: treatment dosage 315 g/ha
Procedure, shortened: as §1

birds-eye speedwell [35] = assay: Test Example 4: weedkilling efficacy by foliar treatment; p: birds-eye speedwell; details: treatment dosage 315 g/ha
Procedure, shortened: as §1

barnyard grass [36] = assay: Test Example 2: weedkilling efficacy, growth period weed treatment in the submerged state; A: barnyard grass; details: treatment dosage 252 g/ha
Procedure, shortened: as §4

Compound: CC1=C(c2ccccc2)C(=O)N(C(C)(C)C(=O)Nc2nc(Cl)ns2)CO1 [B-1-12]
- O (catchweed) weedkilling efficacy grade (catchweed): 3 (weed kill ratio 40% or more, less than 70%)
- e (wheat) effect on crop grade (wheat [1]): 0 (weed kill ratio 5% or less (practically no effect))
- D (crabgrass) weedkilling efficacy grade (crabgrass [2]): 5 (weed kill ratio 90% or more, (practically complete withering))
- D (crabgrass) weedkilling efficacy grade (crabgrass [3]): 5 (weed kill ratio 90% or more, (practically complete withering))
- c (corn) effect on crop grade (corn [4]): 5 (weed kill ratio 90% or more, (practically complete withering))
- c (corn) effect on crop grade (corn [5]): 5 (weed kill ratio 90% or more, (practically complete withering))
- N (chickweed) weedkilling efficacy grade (chickweed [6]): 4 (weed kill ratio 70% or more, less than 90%)
- G (wild oat) weedkilling efficacy grade (wild oat [7]): 3 (weed kill ratio 40% or more, less than 70%)
- b (directly sown rice) effect on crop grade (directly sown rice [8]): 3 (weed kill ratio 40% or more, less than 70%)
- e (wheat) effect on crop grade (wheat [9]): 0 (weed kill ratio 5% or less (practically no effect))
- A (barnyard grass) weedkilling efficacy grade (barnyard grass [10]): 5 (weed kill ratio 90% or more, (practically complete withering))
- M (fig-leafed goosefoot) weedkilling efficacy grade (fig-leafed goosefoot [11]): 4 (weed kill ratio 70% or more, less than 90%)
- I (Italian ryegrass) weedkilling efficacy grade (Italian ryegrass [12]): 2 (weed kill ratio 20% or more, less than 40%)
- E (green foxtail) weedkilling efficacy grade (green foxtail [13]): 5 (weed kill ratio 90% or more, (practically complete withering))
- d (soybean) effect on crop grade (soybean [14]): 0 (weed kill ratio 5% or less (practically no effect))
- M (fig-leafed goosefoot) weedkilling efficacy grade (fig-leafed goosefoot [15]): 4 (weed kill ratio 70% or more, less than 90%)
- C (oval-leafed pondweed) weedkilling efficacy grade (oval-leafed pondweed [16]): 5 (weed kill ratio 90% or more, (practically complete withering))
- f (beet) effect on crop grade (beet [17]): 4 (weed kill ratio 70% or more, less than 90%)
- b (directly sown rice) effect on crop grade (directly sown rice [18]): 5 (weed kill ratio 90% or more, (practically complete withering))
- P (birds-eye speedwell) weedkilling efficacy grade (birds-eye speedwell [19]): 4 (weed kill ratio 70% or more, less than 90%)
- f (beet) effect on crop grade (beet [20]): 5 (weed kill ratio 90% or more, (practically complete withering))
- d (soybean) effect on crop grade (soybean [21]): 0 (weed kill ratio 5% or less (practically no effect))
- B (bulrush) weedkilling efficacy grade (bulrush [22]): 5 (weed kill ratio 90% or more, (practically complete withering))
- B (bulrush) weedkilling efficacy grade (bulrush [23]): 5 (weed kill ratio 90% or more, (practically complete withering))
- K (Indian mallow) weedkilling efficacy grade (Indian mallow [24]): 3 (weed kill ratio 40% or more, less than 70%)
- N (chickweed) weedkilling efficacy grade (chickweed [25]): 4 (weed kill ratio 70% or more, less than 90%)
- E (green foxtail) weedkilling efficacy grade (green foxtail [26]): 5 (weed kill ratio 90% or more, (practically complete withering))
- H (black-grass) weedkilling efficacy grade (black-grass [27]): 4 (weed kill ratio 70% or more, less than 90%)
- C (oval-leafed pondweed) weedkilling efficacy grade (oval-leafed pondweed [28]): 5 (weed kill ratio 90% or more, (practically complete withering))
- K (Indian mallow) weedkilling efficacy grade (Indian mallow [29]): 4 (weed kill ratio 70% or more, less than 90%)
- I (Italian ryegrass) weedkilling efficacy grade (Italian ryegrass [30]): 1 (weed kill ratio 5% or more, less than 20%)
- a (transplanted rice) effect on crop grade (transplanted rice): 0 (weed kill ratio 5% or less (practically no effect))
- L (redroot pigweed) weedkilling efficacy grade (redroot pigweed [31]): 4 (weed kill ratio 70% or more, less than 90%)
- H (black-grass) weedkilling efficacy grade (black-grass [32]): 4 (weed kill ratio 70% or more, less than 90%)
- L (redroot pigweed) weedkilling efficacy grade (redroot pigweed [33]): 0 (weed kill ratio 5% or less (practically no effect))
- G (wild oat) weedkilling efficacy grade (wild oat [34]): 3 (weed kill ratio 40% or more, less than 70%)
- P (birds-eye speedwell) weedkilling efficacy grade (birds-eye speedwell [35]): 3 (weed kill ratio 40% or more, less than 70%)
- A (barnyard grass) weedkilling efficacy grade (barnyard grass [36]): 5 (weed kill ratio 90% or more, (practically complete withering))

From patent US9738634B2, “Heterocyclic amide compound and herbicide” (SYNGENTA PARTICIPATIONS AG, priority 2013, dated 2017)
